Test results taken from patent US20250296940A1, “ANNULATED 2-AMINO-3-CYANO THIOPHENES AND DERIVATIVES FOR THE TREATMENT OF CANCER” (Boehringer Ingelheim Int'l GmbH Corp., priority 2021, published 2025).
Values after ≈ are worked out from the molar mass of the structure shown. Like-named read-outs stand apart in the source and are kept apart here.

Tests used:
[1] = target: Ba/F3 KRASG12C cells (Homo sapiens, UniProt P01116, G12C, cells depend on it); assay: Ba/F3 cell model proliferation assay (AlamarBlue, 72 h); assay type: cell-based; conditions: without IL-3, read-out: IC50 Ba/F3 KRASG12C
Procedure: Plasmids containing KRASG12 mutants were obtained from GeneScript. […] Retrovirus was added to Ba/F3 cells. To ensure infection, 4 μg/mL polybrene was added and cells were spinfected. […] As a control, parental Ba/F3 cells were used to show selection status. Selection was considered successful when parental Ba/F3 cells cultures died. […] Ba/F3 cells harboring the empty vector were used as a control. Approximately ten days before conducting the experiments, puromycin was left out.
Compounds were added using an Access Labcyte Workstation with a Labcyte Echo 550 or 555 acoustic dispenser. All treatments were performed in technical duplicates. The assay is run using a fully automated robotic system. […] AlamarBlue™ (ThermoFisher), a viability stain, was added and fluorescence measured in the PerkinElmer Envision HTS Multilabel Reader. The raw data were imported into and analyzed with the Boehringer Ingelheim proprietary software MegaLab (curve fitting based on the program PRISM, GraphPad Inc.).

[2] = Metabolic (microsomal) stability assay; assay type: in vitro ADME; conditions: human liver microsomes 1 mg/mL, 1 μM compound, 37° C.; predicted clearance as percent of liver blood flow
Procedure: The metabolic degradation of the test compound is assayed at 37° C. with pooled liver microsomes (mouse (MLM), rat (RLM) or human (HLM)). The final incubation volume of 48 μL per time point contains TRIS buffer (pH 7.5; 0.1 M), magnesium chloride (6.5 mM), microsomal protein (0.5 mg/mL for mouse/rat, 1 mg/mL for human specimens) and the test compound at a final concentration of 1 μM. Following a short preincubation period at 37° C., the reactions are initiated by addition of 12 μL beta-nicotinamide adenine dinucleotide phosphate, reduced form (NADPH, 10 mM) and terminated by transferring an aliquot into solvent after different time points (0, 5, 15, 30, 60 min). Additionally, the NADPH-independent degradation is monitored in incubations without NADPH, terminated at the last time point by addition of acetonitrile. The quenched incubations are pelleted by centrifugation (4,000 rpm, 15 min). An aliquot of the supernatant is assayed by LC-MS/MS to quantify the concentration of parent compound in the individual samples.
In vitro intrinsic clearance (CLint, in vitro) is calculated from the time course of the disappearance of the test drug during the microsomal incubation. Each plot is fitted to the first-order elimination rate constant as C(t)=C0*exp(−ke*t), where C(t) and C0 are the concentration of unchanged test drug at incubation time t and that at preincubation and ke is the disappearance rate constant of the unchanged drug. Subsequently, CLint, in vitro (μL min^−1·amount protein) values are converted to predicted CLint,in vivo (mL min^−1·kg^−1) from incubation parameters according to the equation CLint, in vivo=CLint, in vitro×(incubation volume (ml)/amount protein (mg))×(amount protein (mg)/g liver tissue)×(liver weight/body wt.).
For better across species comparison the predicted clearance is expressed as percent of the liver blood flow [% QH](mL min^−1 kg^−1) in the individual species. In general, high stability (corresponding to low % QH) of the compounds across species is desired.
Metabolic stability data obtained with the disclosed assay in HLM for a selection of compounds (I) according to the invention: […]

[3] = target: T1, CYP3A4 (Homo sapiens, UniProt P08684); assay: Mechanism based inhibition of CYP3A4 assay (MBI 3A4); assay type: in vitro ADME; conditions: human liver microsomes, 25 uM compound; hydroxy-midazolam formation after 30 min preincubation relative to 0 min
T1 construct: assayed in human liver microsomes (0.02 mg/mL) with midazolam (15 μM) as a substrate; from tissue; host or cells: human liver microsomes
Procedure: The time dependent inhibition towards CYP3A4 is assayed in human liver microsomes (0.02 mg/mL) with midazolam (15 μM) as a substrate. The test compounds and water control (wells w/o test compound) are preincubated in presence of NADPH (1 mM) with human liver microsomes (0.2 mg/mL) at a concentration of 25 uM for 0 min and 30 min. After preincubation, the incubate is diluted 1:10 and the substrate midazolam is added for the main incubation (15 min). The main incubation is quenched with acetonitrile and the formation of hydroxy-midazolam is quantified via LC/MS-MS. The formation of hydroxy-midazolam from the 30 min preincubation relative to the formation from the 0 min preincubation is used as a readout. Values of less than 100% mean that the substrate midazolam is metabolized to a lower extent upon 30 min preincubation compared to 0 min preincubation. In general low effects upon 30 min preincubation are desired (corresponding to values close to 100%/not different to the values determined with water control).
(§1) Data obtained with the disclosed assay for a selection of compounds (I) according to the invention: […]

[4] = Solubility measurement (DMSO solution precipitation method); assay type: physicochemical; conditions: aqueous buffer, kinetic from dmso stock, ambient temperature
Procedure: The DMSO solution is diluted with an aqueous medium (McIlvaine buffer with pH=4.5 or 6.8) to a final concentration of 250 μM. After 24 h of shaking at ambient temperature a potentially formed precipitate is removed by filtration. The concentration of the test compound in the filtrate is determined by LC-UV methods by calibrating the signal to the signal of a reference solution with complete dissolution of the test compound in acetonitrile/water (1:1) with known concentration.
as §1

[5] = test system: NCI-H2122 cells (NSCLC, G12C); assay: NCI-H2122 CTG proliferation assay (120 h); assay type: cell-based; conditions: Homo sapiens, NCI-H2122, CellTiter-Glo
Procedure: The CTG assay is designed to measure quantitatively the proliferation of NCI-H2122 cells (ATCC CRL-5985), using the CellTiter Glow Assay Kit (Promega G7571). Cells are grown in RPMI medium (ATCC) supplemented with Fetal Calf Serum (Life Technologies, Gibco BRL, Cat. No. 10270-106). On “day 0” 200 NCI-H2122 cells are seeded in 60 μL RPMI ATCC+10% FCS+ Penstrep in a black 384-well plate, flat and clear bottom (Greiner, PNr. 781091). Cells are then incubated in the plates at 37° C. in a CO2 incubator overnight. On day 1, compounds (10 mM stock in DMSO) are added with the ECHO acoustic liquid handler system (Beckman Coulter), including DMSO controls. Plates are incubated for 120 h, and cell viability is measured using CellTiter-Glo luminescent cell viability reagent (Promega product code G7570). Viability (stated as percent of control) is defined as relative luminescence units RLU of each well divided by the RLU of cells in DMSO controls. IC50 values are determined from viability measurements by non-linear regression using a four parameter model.
IC50 values of representative compounds according to the invention measured with these assays in the indicated cell lines: […]

[6] = McIlvaine buffer pH 4.5, 24 h, read-out: Solubility pH 4.5
[7] = McIlvaine buffer pH 6.8, 24 h, read-out: Solubility pH 6.8

T1 sequence (P08684 whole entry): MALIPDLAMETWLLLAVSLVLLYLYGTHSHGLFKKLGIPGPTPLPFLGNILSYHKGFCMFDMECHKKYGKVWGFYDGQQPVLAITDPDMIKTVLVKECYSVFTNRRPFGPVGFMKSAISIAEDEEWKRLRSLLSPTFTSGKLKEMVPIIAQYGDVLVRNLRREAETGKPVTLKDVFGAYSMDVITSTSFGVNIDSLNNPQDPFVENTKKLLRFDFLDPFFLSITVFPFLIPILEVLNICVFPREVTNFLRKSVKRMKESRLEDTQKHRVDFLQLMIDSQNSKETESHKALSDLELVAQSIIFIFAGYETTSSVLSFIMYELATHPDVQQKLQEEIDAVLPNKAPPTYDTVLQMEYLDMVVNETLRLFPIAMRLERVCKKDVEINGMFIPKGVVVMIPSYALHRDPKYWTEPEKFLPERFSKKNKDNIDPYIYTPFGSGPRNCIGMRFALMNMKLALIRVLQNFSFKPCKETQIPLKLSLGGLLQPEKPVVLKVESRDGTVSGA
Ba/F3 KRASG12C cells, sequence (P01116 whole entry G12C): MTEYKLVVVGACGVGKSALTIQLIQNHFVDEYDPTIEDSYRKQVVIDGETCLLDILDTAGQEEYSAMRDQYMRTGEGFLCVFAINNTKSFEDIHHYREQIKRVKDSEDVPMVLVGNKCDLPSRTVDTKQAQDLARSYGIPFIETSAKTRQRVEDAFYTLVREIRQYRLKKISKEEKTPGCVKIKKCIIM

Row | SMILES | GI50 [1] [nM] | HLM QH [2] [%] | MBI 3A4 [3] [%] | solubility at 24 h [4, 6] [µg/mL] | solubility at 24 h [4, 7] [µg/mL] | IC50 [5] [nM]
1 | C=C(F)C(=O)N1[C@@H](C)CN(c2cc(O[C@@H](C)[C@@H]3CCCN3C)nc(-c3onc4c3CCC[C@@]43CCCc4sc(N)c(C#N)c43)n2)C[C@@H]1C [Ia-1] | 0.8 | <24 | 61 | 125 (≈ 185 µM) | 57 (≈ 84.5 µM) | 
2 | C=CC(=O)N1[C@@H](C)CN(c2cc(O[C@@H](C)[C@@H]3CCCN3C)nc(-c3onc4c3CCC[C@@]43CCCc4sc(N)c(C#N)c43)n2)C[C@@H]1C [Ia-2] | 0.1 | <24 | 62 | > 156 | 126 (≈ 192 µM) | 2
3 | C=C(F)C(=O)N1[C@@H](C)CN(c2cc(-c3onc4c3CCC[C@@]43CCCc4sc(N)c(C#N)c43)nc(O[C@@H](C)[C@@H]3CCCN3C)n2)C[C@@H]1C [Ia-3] | 3.7 | 41 |  | 116 (≈ 172 µM) | < 1 | 96
4 | C=CC(=O)N1[C@@H](C)CN(c2cc(-c3onc4c3CCC[C@@]43CCCc4sc(N)c(C#N)c43)nc(O[C@@H](C)[C@@H]3CCCN3C)n2)C[C@@H]1C [Ia-4] | 0.1 | 28 |  | > 163 | > 160 | 4
5 | C[C@H](Oc1cc(N2C[C@H](C)N(C(=O)/C=C/CF)[C@@H](C)C2)nc(-c2noc3c2CCC[C@@]32CCCc3sc(N)c(C#N)c32)n1)[C@@H]1CCCN1C [Ib-1] | 0.5 | <24 |  |  |  | 29
6 | C=CC(=O)N1CCN(c2cc(O[C@@H](C)[C@@H]3CCCN3C)nc(-c3noc4c3CCC[C@@]43CCCc4sc(N)c(C#N)c43)n2)CC12CC2 [Ib-2] | 0.3 | <24 |  | 111 (≈ 170 µM) | 77 (≈ 118 µM) | 19
7 | C=CC(=O)N1[C@@H](C)CN(c2cc(O[C@@H](C)[C@@H]3CCCN3C)nc(-c3noc4c3CCC[C@@]43CCCc4sc(N)c(C#N)c43)n2)C[C@@H]1C [Ib-3] | 0.2 | 34 | 65 | 130 (≈ 198 µM) | 121 (≈ 184 µM) | 
8 | C=CC(=O)N1[C@@H](C)CN(c2cc(-c3noc4c3CCC[C@@]43CCCc4sc(N)c(C#N)c43)nc(O[C@@H](C)[C@@H]3CCCN3C)n2)C[C@@H]1C [Ib-4] | 0.1 | 45 | 78 | > 140 | 129 (≈ 196 µM) | 
9 | C=C(F)C(=O)N1[C@@H](C)CN(c2cc(O[C@@H](C)[C@@H]3CCCN3C)nc(-c3noc4c3CCC[C@@]43CCCc4sc(N)c(C#N)c43)n2)C[C@@H]1C [Ib-5] | 0.5 | <24 | 69 | 116 (≈ 172 µM) | 40 (≈ 59.3 µM) | 21
10 | C=C(F)C(=O)N1[C@@H](C)CN(c2cc(-c3noc4c3CCC[C@@]43CCCc4sc(N)c(C#N)c43)nc(O[C@@H](C)[C@@H]3CCCN3C)n2)C[C@@H]1C [Ib-6] | 1.6 | 72 | 64 | 113 (≈ 167 µM) | 50 (≈ 74.1 µM) | 35
11 | C[C@H](Oc1nc(-c2noc3c2CCC[C@@]32CCCc3sc(N)c(C#N)c32)cc(N2C[C@H](C)N(C(=O)/C=C/CF)[C@@H](C)C2)n1)[C@@H]1CCCN1C [Ib-7] | 1.6 | 64 | 62 | > 139 | 108 (≈ 157 µM) | 190
12 | C[C@H](Oc1nc(-c2noc3c2CCC[C@@]32CCCc3sc(N)c(C#N)c32)cc(N2C[C@H](C)N(C(=O)/C=C/c3cccnc3)[C@@H](C)C2)n1)[C@@H]1CCCN1C [Ib-8] | 25.1 | 49 |  | 102 (≈ 139 µM) | 13 (≈ 17.7 µM) | 999
13 | COC/C=C/C(=O)N1[C@@H](C)CN(c2cc(-c3noc4c3CCC[C@@]43CCCc4sc(N)c(C#N)c43)nc(O[C@@H](C)[C@@H]3CCCN3C)n2)C[C@@H]1C [Ib-9] | 15.1 | 76 | 68 | 83 (≈ 118 µM) | 114 (≈ 163 µM) | 2260
